In patent US10071103B2, “Treatments for resistant acne” (VYOME BIOSCIENCES PVT. LTD., priority 2014, dated 2018):
Converted amounts (≈) assume the structure as drawn. Read-outs that look alike come from different tables or passages of the source.

Experiments:
[1] = test system: P. acnes MTCC 1951; assay: MIC by micro broth dilution (Alamar blue), clindamycin-susceptible P. acnes; format: cell-based, Propionibacterium acnes; details: for MIC: Cutibacterium acnes, MTCC1951; for Activity / bacterial killing, dose response curve (in words): clindamycin-susceptible MTCC 1951
Summary of the method: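 P. acnes in BHI broth, inoculum adjusted to 0.5 McFarland and diluted 100-fold, exposed to serially diluted compound at 37° C. for 48-72 h under anaerobic conditions. Growth read by OD at 595 nm; MIC recorded after Alamar blue addition.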

[2] = test system: IL-8; assay: P. acnes-induced IL-8 release in THP-1 cells (ELISA); format: cell-based; details: 25 μg/ml
[3] = test system: IL-6; assay: P. acnes-induced IL-6 release in THP-1 cells (ELISA); format: cell-based; details: 25 μg/ml, THP-1 cells, 100% = P. acnes induced cells

Structure (SMILES): Cc1ncc([N+](=O)[O-])n1CC(O)CN1CCN(c2cc3c(cc2F)c(=O)c(C(=O)O)c2n3C(C)S2)CC1 (centres unmarked) [Compound 91, 6-Fluoro-7-{4-[2-hydroxy-3-(2-methyl-5-nitro-imidazol-1-yl)-propyl]-piperazin-1-yl}-1-methyl-4-oxo-4H-2-thia-8b-aza-cyclobuta[a]naphthalene-3-carboxylic acid]
- MIC ([1]; Table 7, against P. acnes, read-out: MIC): 0.2 µg/mL (≈ 0.376 µM)
- MIC ([1]; read-out: MIC Susceptible P. acnes (1951) strain): 0.2 µg/mL (≈ 0.376 µM)
- Activity / bacterial killing, dose response curve (in words) [1]: highly efficacious bacterial killing profile
- Activity / bacterial killing, dose response curve (in words) ([1]; listed as compound 91): lower MIC value and faster bacterial killing profile
- Effect on IL-8 levels (in words) ([2]; P. acnes-induced THP-1 cells): did not have an effect
- Percentage reduction in P. acnes induced IL-8 release ([2]; THP-1 cells, 100% = P. acnes induced cells): 14.65%
- Percentage reduction in P. acnes induced IL-6 release [3]: 56.76%
- Percentage reduction in P. acnes induced IL-6 release ([3]; listed as compound 91): ~60%
